Source: patent US11952365B2, “Anti-viral compounds” (Aligos Therapeutics, Inc., priority 2020, dated 2024)
Where two headings read alike, the source gives them in different places.

Columns and labels:
HRV3C = HRV3C (Human rhinovirus 14, UniProt P03303); assay: HRV3C protease assay (duplex, SAMDI-MS); type: biochemical, HRV
How it was run: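 HRV3C was preincubated 30 min with compound alongside 3CLpro at ambient temperature, then two biotinylated peptide substrates were added for 30 min. Quenching used 0.5% formic acid (final). Cleaved product was captured on neutravidin SAMDI arrays and quantified by MALDI-TOF as product/internal-standard AUC ratio; IC50 from four-parameter fit.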

[1] = tested on: human beta-coronavirus OC43; assay: microbe, parasite or virus in culture; type: cell-based; settings: Betacoronavirus 1, OC43, HeLa, 144 h
[2] = Cytotoxicity plates without OC43 virus (cell-titer-glo); type: cell-based, human; settings: human; HeLa cells without OC43 virus, class symbols
How it was run: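 Run as a virus-free counterpart of the OC43 cytopathic-effect assay. Attached HeLa cells received compound dilutions in EMEM with 2% FBS and were kept 6 days at 33 °C. Cell viability was then measured by CellTiter-Glo luminescence.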

[3] = tested on: SARS-CoV-2-GHB-03021/2020; assay: SARS-CoV-2 Infection Model in Huh7 Cells; type: cell-based; settings: Severe acute respiratory syndrome coronavirus 2, Huh-7, 96 h, SARS-CoV-2, day 4 p.i., MTS, class symbols
[4] = tested on: SARS-CoV-2-GHB-03021/2020; assay: microbe, parasite or virus in culture; type: cell-based; settings: Severe acute respiratory syndrome coronavirus 2, Vero C1008, 96 h; read-out: VeroE6 + CP (EC50)
human cathepsin L = molecular target: T1, human cathepsin L (Homo sapiens, UniProt P07711); assay: cathepsin L assay; type: biochemical; settings: 10 pM human cathepsin L, Z-FR-AMC 2 μM
T1 construct: purchased R&D Systems
How it was run: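 Reactions began by adding 2 μM (final) Z-FR-AMC substrate to 10 pM human cathepsin L that had been preincubated 30 min with inhibitor. Kinetic AMC fluorescence at 355/460 nm over 30 min at 2-min intervals; four-parameter fitting gave IC50 values.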

in vitro [5] = settings: human
in vitro [6] = settings: African green monkey, VeroE6 + CP (CC50), Vero E6-eGFP cells with CP-100356, absence of virus, MTS
3CLpro = 3CLpro (Severe acute respiratory syndrome coronavirus 2, UniProt P0DTD1); assay: SARS-CoV-2 3CLpro protease assay (duplex, SAMDI-MS); type: biochemical; set-up: For the duplex assay, 3CLpro and HRV3C was added; settings: 3CLpro, 30 mins preincubation, class symbols; read-out: SARS-Cov-2 IC50
[7] = HRV3C, 30 mins preincubation, class symbols, read-out: HRV IC50
[8] = OC43 in HeLa cells, 6 days at 33° C., class symbols, read-out: EC50
[9] = HRV IC50, HRV3C, 30 mins preincubation, class symbols
[10] = HRV3C, 30 mins preincubation, bound, read-out: HRV IC50

Structure (SMILES) | IC50 (HRV3C; [7]) [µM] | EC50 [1, 8] [µM] | CC50 at 6 days [2] [µM] | EC50 [3] [µM] | EC50 [4] [µM] | IC50 (human cathepsin L; class symbols) [µM] | CC50 (in vitro [5]) [µM] | CC50 (in vitro [6]; numeric bounds) [µM] | IC50 (3CLpro) [µM] | IC50 (HRV3C; [9]) [µM] | IC50 (HRV3C; [10]) [µM] | CC50 (in vitro [6]; class symbols) [µM] | IC50 (HRV3C; HRV3C, printed bound without unit, read-out: HRV IC50) [µM] | IC50 (human cathepsin L; bound) [µM] | EC50 [1] [µM]
COc1cccc2[nH]c(C(=O)N3C[C@@H]4CCC[C@@H]4[C@H]3C(=O)NC(C[C@@H]3CCCNC3=O)C(=O)C(=O)NC3CC3)cc12 (stereo partly drawn) [Compound 55, 3-{[(1S,3aR,6aS)-2-(4-methoxy-1H-indole-2-carbonyl)-hexahydro-1H-cyclopenta[c]pyrrol-1-yl]formamido}-N-cyclopropyl-2-oxo-4-[(3S)-2-oxopiperidin-3-yl]butanamide] | 0.02 to 0.2 | 0.1 to 1 | > 10 | 1 to 10 | 1 to 10 | ≥ 10 | > 100 | > 100 | < 0.02 | – | – | – | – | – | –
O=C1NCCC[C@H]1C[C@H](NC(=O)[C@@H]1[C@H]2CCC[C@H]2CN1C(=O)c1cc2ccccc2[nH]1)C(O)S(=O)(=O)O (stereo partly drawn) [Compound 58, sodium (2S)-2-{[(1S,3aR,6aS)-2-(1H-indole-2-carbonyl)-hexahydro-1H-cyclopenta[c]pyrrol-1-yl]formamido}-1-hydroxy-3-[(3S)-2-oxopiperidin-3-yl]propane-1-sulfonate] | – | 0.1 to 1 | > 10 | < 1 | < 1 | 1 to 10 | > 100 | > 100 | < 0.02 | 0.02 to 0.2 | – | – | – | – | –
O=C1NCC[C@H]1C[C@H](NC(=O)[C@@H]1[C@H]2CCC[C@H]2CN1C(=O)c1cc2c(Cl)cccc2[nH]1)C(=O)CO [Compound 60, (1S,3aR,6aS)-2-(4-chloro-1H-indole-2-carbonyl)-N-[(2S)-4-hydroxy-3-oxo-1-[(3S)-2-oxopyrrolidin-3-yl]butan-2-yl]-hexahydro-1H-cyclopenta[c]pyrrole-1-carboxamide] | – | < 0.1 | > 10 | < 1 | < 1 | ≥ 10 | > 100 | – | < 0.02 | – | > 10 | > 10 | – | – | –
O=C1NCC[C@H]1C[C@H](NC(=O)[C@@H]1[C@H]2CCC[C@H]2CN1C(=O)c1cc2c(Cl)cccc2[nH]1)C(=O)COCc1ccccc1 [Compound 60A, (1S,3aR,6aS)—N-[(2S)-4-(benzyloxy)-3-oxo-1-[(3S)-2-oxopyrrolidin-3-yl]butan-2-yl]-2-(4-chloro-1H-indole-2-carbonyl)-hexahydro-1H-cyclopenta[c]pyrrole-1-carboxamide] | – | < 0.1 | > 10 | 1 to 10 | 1 to 10 | ≥ 10 | 1 to 10 | > 100 | 0.2 to 2 | – | > 10 | – | – | – | –
COc1cccc2[nH]c(C(=O)N3C[C@@H]4CCC[C@@H]4[C@H]3C(=O)N[C@@H](C[C@@H]3CCNC3=O)C(=O)COP(=O)(O)O)cc12 [Compound 61, (3S)-3-1{[(1S,3aR,6aS)-2-(4-methoxy-1H-indole-2-carbonyl)-hexahydro-1H-cyclopenta[c]pyrrol-1-yl]formamido}-2-oxo-4-[(3S)-2-oxopyrrolidin-3-yl]butoxyphosphonic acid] | – | 0.1 to 1 | > 10 | 1 to 10 | 1 to 10 | ≥ 10 | > 100 | > 100 | 0.2 to 2 | – | > 10 | – | – | – | –
COc1cccc2[nH]c(C(=O)N3C[C@@H]4CCC[C@@H]4[C@H]3C(=O)NC(C[C@@H]3CCNC3=O)C(=O)C(C)O)cc12 (stereo partly drawn) [Compound 62, (1S,3aR,6aS)—N-(4-hydroxy-3-oxo-1-((S)-2-oxopyrrolidin-3-yl)pentan-2-yl)-2-(4-methoxy-1H-indole-2-carbonyl)octahydrocyclopenta[c]pyrrole-1-carboxamide] | – | 1 to 10 | > 10 | 10 to 100 | 10 to 100 | ≥ 10 | > 100 | – | 0.2 to 2 | – | > 10 | > 10 | – | – | –
O=C1NCC[C@H]1C[C@H](NC(=O)[C@@H]1[C@H]2CCC[C@H]2CN1C(=O)c1cc2c(C(F)(F)F)cccc2[nH]1)C(=O)CO [Compound 63, (1S,3aR,6aS)—N-[(2S)-4-hydroxy-3-oxo-1-[(3S)-2-oxopyrrolidin-3-yl]butan-2-yl]-2-[4-(trifluoromethyl)-1H-indole-2-carbonyl]-hexahydro-1H-cyclopenta[c]pyrrole-1-carboxamide] | – | 0.1 to 1 | > 10 | < 1 | < 1 | ≥ 10 | > 10 | – | 0.02 to 0.2 | – | > 10 | > 10 | – | – | –
O=C1NCC[C@H]1C[C@H](NC(=O)[C@@H]1[C@H]2CCC[C@H]2CN1C(=O)c1cc2c(OC(F)(F)F)cccc2[nH]1)C(=O)CO [Compound 64, (1S,3aR,6aS)—N-[(2S)-4-hydroxy-3-oxo-1-[(3S)-2-oxopyrrolidin-3-yl]butan-2-yl]-2-[4-(trifluoromethoxy)-1H-indole-2-carbonyl]-hexahydro-1H-cyclopenta[c]pyrrole-1-carboxamide] | – | < 0.1 | > 10 | < 1 | < 1 | ≥ 10 | > 10 | – | 0.02 to 0.2 | – | > 10 | > 10 | – | – | –
COc1ccc(F)c2[nH]c(C(=O)N3C[C@@H]4CCC[C@@H]4[C@H]3C(=O)N[C@@H](C[C@@H]3CCNC3=O)C(=O)CO)cc12 [Compound 65, (1S,3aR,6aS)-2-(7-fluoro-4-methoxy-1H-indole-2-carbonyl)-N-[(2S)-4-hydroxy-3-oxo-1-[(3S)-2-oxopyrrolidin-3-yl]butan-2-yl]-hexahydro-1H-cyclopenta[c]pyrrole-1-carboxamide] | 0.2 to 2 | 0.1 to 1 | > 10 | < 1 | < 1 | ≥ 10 | > 100 | – | < 0.02 | – | – | > 10 | – | – | –
COc1cccc2[nH]c(C(=O)N3C[C@@H]4CCC[C@@H]4[C@H]3C(=O)N[C@@H](C[C@H]3CC(C)(C)NC3=O)C(=O)CO)cc12 [Compound 70_2] | – | 1 to 10 | > 10 | 10 to 100 | 10 to 100 | ≥ 10 | > 50 | > 50 | 0.2 to 2 | – | – | – | > 10 | – | –
COc1cccc2sc(C(=O)N3C[C@@H]4CCC[C@@H]4[C@H]3C(=O)N[C@@H](C[C@@H]3CCNC3=O)C(=O)CO)cc12 [Compound 72, (1S,3aR,6aS)—N-[(2S)-4-hydroxy-3-oxo-1-[(3S)-2-oxopyrrolidin-3-yl]butan-2-yl]-2-(4-methoxy-1-benzothiophene-2-carbonyl)-hexahydro-1H-cyclopenta[c]pyrrole-1-carboxamide] | – | 0.1 to 1 | > 10 | 1 to 10 | 1 to 10 | – | > 100 | > 100 | 0.2 to 2 | – | > 10 | – | – | > 3.3 | –
O=C1NCC[C@H]1C[C@H](NC(=O)[C@@H]1[C@H]2CCC[C@H]2CN1C(=O)c1cc(-c2ccccc2)c[nH]1)C(=O)CO [Compound 79, (1S,3aR,6aS)—N—((S)-4-hydroxy-3-oxo-1-((S)-2-oxopyrrolidin-3-yl)butan-2-yl)-2-(4-phenyl-1H-pyrrole-2-carbonyl)octahydrocyclopenta[c]pyrrole-1-carboxamide] | – | – | > 10 | 1 to 10 | 1 to 10 | ≥ 10 | > 50 | > 50 | 0.02 to 0.2 | 2 to 20 | – | – | – | – | 0.1 to 1
